Reference: US11820766B2, “Monoacylglycerol lipase modulators” (Janssen Pharmaceutica NV, priority 2018, dated 2023)

Target: T1, human MGL from HeLa cells (Homo sapiens, UniProt Q99685)
T1 construct: combining endogenously expressed MGL from HeLa cells with test compounds; endogenous in cells; host or cells: HeLa cells / cell homogenates
T1 sequence (Q99685 1-303): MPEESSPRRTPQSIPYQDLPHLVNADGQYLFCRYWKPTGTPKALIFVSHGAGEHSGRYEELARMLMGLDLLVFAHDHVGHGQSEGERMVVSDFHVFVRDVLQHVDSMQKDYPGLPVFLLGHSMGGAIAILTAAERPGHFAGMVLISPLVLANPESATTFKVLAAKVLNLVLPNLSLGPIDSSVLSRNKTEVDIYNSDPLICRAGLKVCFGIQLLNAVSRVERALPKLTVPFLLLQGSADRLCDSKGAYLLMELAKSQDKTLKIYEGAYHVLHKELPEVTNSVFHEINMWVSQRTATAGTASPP
Experiment: In vitro MGL activity assay: [glycerol-1,3-3H]-oleyl glycerol cleavage by MGL from HeLa cells
Type: biochemical
Details: 300 nM [Glycerol-1,3-3H]-oleyl glycerol, one hour incubation
Description: MGL is the predominant hydrolase in HeLa cells/cell homogenates.

| IC50 [nM] | Structure (SMILES) |
| --- | --- |
| 47.2 | C[C@H]1c2nn(C)c(-c3cccc(Cl)c3)c2CCN1C(=O)c1cc2ncccc2o1 [Example 129, (S)-(3-(3-Chlorophenyl)-2,7-dimethyl-2,4,5,7-tetrahydro-6H-pyrazolo[3,4-c]pyridin-6-yl)(furo[3,2-b]pyridin-2-yl)methanone] |
| 274 | C[C@H]1c2nn(C)c(-c3cccc(Cl)c3)c2CCN1C(=O)c1ccc2cc[nH]c2n1 [Example 130, (S)-(3-(3-Chlorophenyl)-2,7-dimethyl-2,4,5,7-tetrahydro-6H-pyrazolo[3,4-c]pyridin-6-yl)(1H-pyrrolo[2,3-b]pyridin-6-yl)methanone] |
| 10.6 | C[C@H]1c2nn(C)c(-c3cccc(Cl)c3)c2CCN1C(=O)c1cc(Br)c2nccnc2c1 [Example 135, (S)-(8-Bromoquinoxalin-6-yl)(3-(3-chlorophenyl)-2,7-dimethyl-2,4,5,7-tetrahydro-6H-pyrazolo[3,4-c]pyridin-6-yl)methanone] |
| 240 | C[C@H]1c2nn(C)c(-c3cc(F)cc(F)c3)c2CCN1C(=O)c1ccccc1OCCF [Example 137, [(7S)-3-(3,5-Difluorophenyl)-2,7-dimethyl-5,7-dihydro-4H-pyrazolo[3,4-c]pyridin-6-yl]-[2-(2-fluoroethoxy)phenyl]methanone] |
| 39.5 | C[C@H]1c2nn(C)c(-c3cc(F)cc(F)c3)c2CCN1C(=O)c1ccc(OCCF)cc1 [Example 138, (S)-(3-(3,5-Difluorophenyl)-2,7-dimethyl-2,4,5,7-tetrahydro-6H-pyrazolo[3,4-c]pyridin-6-yl)(4-(2-fluoroethoxy)phenyl)methanone] |
| 9.8 | C[C@H]1c2nn(C)c(-c3cc(F)cc(F)c3)c2CCN1C(=O)c1cccc(OCCF)c1 [Example 139, (S)-(3-(3,5-Difluorophenyl)-2,7-dimethyl-2,4,5,7-tetrahydro-6H-pyrazolo[3,4-c]pyridin-6-yl)(3-(2-fluoroethoxy)phenyl)methanone] |
| 2.13 | C[C@H]1c2nn(C)c(-c3cc(F)cc(F)c3)c2CCN1C(=O)c1cccc(OCCF)c1Cl [Example 145, [2-Chloro-3-(2-fluoroethoxy)phenyl]-[(7S)-3-(3,5-difluorophenyl)-2,7-dimethyl-5,7-dihydro-4H-pyrazolo[3,4-c]pyridin-6-yl]methanone] |
| 3.73 | C[C@H]1c2nn(C)c(-c3cc(F)cc(F)c3)c2CCN1C(=O)c1cc(OCCF)ccc1Cl [Example 146, (2-Chloro-5-(2-fluoroethoxy)phenyl)(3-(3,5-difluorophenyl)-2,7-dimethyl-2,4,5,7-tetrahydro-6H-pyrazolo[3,4-c]pyridin-6-yl)methanone] |
| 71.7 | C[C@H]1c2nn(C)c(-c3cc(F)cc(F)c3)c2CCN1C(=O)c1ccccc1-n1nccn1 [Example 147, (S)-(2-(2H-1,2,3-Triazol-2-yl)phenyl)(3-(3,5-difluorophenyl)-2,7-dimethyl-2,4,5,7-tetrahydro-6H-pyrazolo[3,4-c]pyridin-6-yl)methanone] |
| 67.1 | CC1c2nn(C)c(-c3cc(F)cc(F)c3)c2CCN1C(=O)c1ncn(-c2ccccc2)n1 (centres unmarked) [Example 148, (3-(3,5-Difluorophenyl)-2,7-dimethyl-2,4,5,7-tetrahydro-6H-pyrazolo[3,4-c]pyridin-6-yl)(1-phenyl-1H-1,2,4-triazol-3-yl)methanone] |
| 0.67 | C[C@H]1c2nn(C)c(-c3cc(F)cc(F)c3)c2CCN1C(=O)c1cccc2c1ccn2CCF [Example 150, (S)-(3-(3,5-Difluorophenyl)-2,7-dimethyl-2,4,5,7-tetrahydro-6H-pyrazolo[3,4-c]pyridin-6-yl)(1-(2-fluoroethyl)-1H-indol-4-yl)methanone] |
| 1.63 | C[C@H]1c2nn(C)c(-c3cc(F)cc(F)c3)c2CCN1C(=O)c1ccnc2c1ccn2CCF [Example 152, (S)-(3-(3,5-Difluorophenyl)-2,7-dimethyl-2,4,5,7-tetrahydro-6H-pyrazolo[3,4-c]pyridin-6-yl)(1-(2-fluoroethyl)-1H-pyrrolo[2,3-b]pyridin-4-yl)methanone] |
| 15.4 | C[C@H]1c2nn(C)c(-c3cc(F)cc(F)c3)c2CCN1C(=O)c1cnc2ccoc2c1 [Example 153, (S)-(3-(3,5-Difluorophenyl)-2,7-dimethyl-2,4,5,7-tetrahydro-6H-pyrazolo[3,4-c]pyridin-6-yl)(furo[3,2-b]pyridin-6-yl)methanone] |
| 6550 | C[C@@H]1c2nn(C)c(-c3cc(F)cc(F)c3)c2CCN1C(=O)c1cnc2ccoc2c1 [Example 154, (R)-(3-(3,5-Difluorophenyl)-2,7-dimethyl-2,4,5,7-tetrahydro-6H-pyrazolo[3,4-c]pyridin-6-yl)(furo[3,2-b]pyridin-6-yl)methanone] |
| 4.63 | CC1c2nn(C(F)F)c(-c3cc(F)cc(F)c3)c2CCN1C(=O)c1ccc2ncccc2c1 (centres unmarked) [Example 155, (2-(Difluoromethyl)-3-(3,5-difluorophenyl)-7-methyl-2,4,5,7-tetrahydro-6H-pyrazolo[3,4-c]pyridin-6-yl)(quinolin-6-yl)methanone] |
| 13.8 | [2H]C([2H])([2H])n1nc2c(c1-c1cc(F)cc(F)c1)CCN(C(=O)c1ccc3ncccc3c1)C2C (centres unmarked) [Example 157, (3-(3,5-Difluorophenyl)-7-methyl-2-(methyl-d3)-2,4,5,7-tetrahydro-6H-pyrazolo[3,4-c]pyridin-6-yl)(quinolin-6-yl)methanone] |

The remaining lines, values behind:

| Structure (SMILES) | IC50 [nM] |
| --- | --- |
| C[C@H]1c2nn(C)c(-c3cccc(Cl)c3)c2CCN1C(=O)c1ccc2ncccc2n1 [Example 131, (S)-(3-(3-Chlorophenyl)-2,7-dimethyl-2,4,5,7-tetrahydro-6H-pyrazolo[3,4-c]pyridin-6-yl)(1,5-naphthyridin-2-yl)methanone] | 46.2 |
| CCC1c2nn(C)c(-c3cccc(F)c3)c2CCN1C(=O)c1ccc2ncccc2c1 (centres unmarked) [Example 136, (7-Ethyl-3-(3-fluorophenyl)-2-methyl-2,4,5,7-tetrahydro-6H-pyrazolo[3,4-c]pyridin-6-yl)(quinolin-6-yl)methanone] | 31.4 |
| C[C@H]1c2nn(C)c(-c3cc(F)cc(F)c3)c2CCN1C(=O)c1cccc(OCCF)c1F [Example 141, (S)-(3-(3,5-Difluorophenyl)-2,7-dimethyl-2,4,5,7-tetrahydro-6H-pyrazolo[3,4-c]pyridin-6-yl)(2-fluoro-3-(2-fluoroethoxy)phenyl)methanone] | 1.72 |
| C[C@H]1c2nn(C)c(-c3cc(F)cc(F)c3)c2CCN1C(=O)c1cc(OCCF)ccc1F [Example 142, (S)-(3-(3,5-Difluorophenyl)-2,7-dimethyl-2,4,5,7-tetrahydro-6H-pyrazolo[3,4-c]pyridin-6-yl)(2-fluoro-5-(2-fluoroethoxy)phenyl)methanone] | 3.7 |
| C[C@H]1c2nn(C)c(-c3cc(F)cc(F)c3)c2CCN1C(=O)c1cc(F)cc(OCCF)c1 [Example 143, (S)-(3-(3,5-Difluorophenyl)-2,7-dimethyl-2,4,5,7-tetrahydro-6H-pyrazolo[3,4-c]pyridin-6-yl)(3-fluoro-5-(2-fluoroethoxy)phenyl)methanone] | 4.21 |
| C[C@H]1c2nn(C)c(-c3cc(F)cc(F)c3)c2CCN1C(=O)c1ccc(F)c(OCCF)c1 [Example 144, (S)-(3-(3,5-Difluorophenyl)-2,7-dimethyl-2,4,5,7-tetrahydro-6H-pyrazolo[3,4-c]pyridin-6-yl)(4-fluoro-3-(2-fluoroethoxy)phenyl)methanone] | 55 |
| CCc1nc(C(=O)N2CCc3c(nn(C)c3-c3cc(F)cc(F)c3)[C@@H]2C)nn1-c1ccccc1 [Example 149, (S)-(3-(3,5-Difluorophenyl)-2,7-dimethyl-2,4,5,7-tetrahydro-6H-pyrazolo[3,4-c]pyridin-6-yl)(5-ethyl-1-phenyl-1H-1,2,4-triazol-3-yl)methanone] | 11.9 |
| CC1c2nn(C(F)(F)F)c(-c3cc(F)cc(F)c3)c2CCN1C(=O)c1ccc2ncccc2c1 (centres unmarked) [Example 156, (3-(3,5-Difluorophenyl)-7-methyl-2-(trifluoromethyl)-2,4,5,7-tetrahydro-6H-pyrazolo[3,4-c]pyridin-6-yl)(quinolin-6-yl)methanone] | 17 |
| CC1c2nn(C)c(-c3cc(F)cc(F)c3)c2CCN1C(=O)c1cc2ccccc2cn1 (centres unmarked) [Example 160, (3-(3,5-Difluorophenyl)-2,7-dimethyl-2,4,5,7-tetrahydro-6H-pyrazolo[3,4-c]pyridin-6-yl)(isoquinolin-3-yl)methanone] | 260 |
| CC1c2nn(C)c(-c3cc(F)cc(F)c3)c2CCN1C(=O)c1ccc2ccncc2c1 (centres unmarked) [Example 161, (3-(3,5-Difluorophenyl)-2,7-dimethyl-2,4,5,7-tetrahydro-6H-pyrazolo[3,4-c]pyridin-6-yl)(isoquinolin-7-yl)methanone] | 260 |
| CC1c2nn(C)c(-c3cc(F)cc(F)c3)c2CCN1C(=O)c1ccc2nccc(Br)c2c1 (centres unmarked) [Example 162, (4-Bromoquinolin-6-yl)(3-(3,5-difluorophenyl)-2,7-dimethyl-2,4,5,7-tetrahydro-6H-pyrazolo[3,4-c]pyridin-6-yl)methanone] | 11.3 |
| CC1c2nn(C)c(-c3cc(F)cc(F)c3)c2CCN1C(=O)c1ccc2ncccc2c1Cl (centres unmarked) [Example 163, (5-Chloroquinolin-6-yl)(3-(3,5-difluorophenyl)-2,7-dimethyl-2,4,5,7-tetrahydro-6H-pyrazolo[3,4-c]pyridin-6-yl)methanone] | 11.8 |
| C[C@H]1c2nn(C)c(-c3cc(F)cc(F)c3)c2CCN1C(=O)c1cc(C(F)(F)F)c2ncccc2c1 [Example 164, (S)-(3-(3,5-Difluorophenyl)-2,7-dimethyl-2,4,5,7-tetrahydro-6H-pyrazolo[3,4-c]pyridin-6-yl)(8-(trifluoromethyl)quinolin-6-yl)methanone] | 38.4 |
